Measurements from US5416090A, “Method of treating inflammation” (priority 1992, dated 1995).
Read-outs that look alike come from different tables or passages of the source.

Columns and labels:
[1] = tested on: lipoidal amine induced arthritis; test: Lipoidal amine induced polyarthritis (hind paw volume and weight); type: in vivo, rat (Lewis); details: for minimal effective dose: Rattus norvegicus
Protocol: Lipoidal amine induced polyarthritis is an animal arthritis model originally described by Chang, Y., et al. in Arthritis and Rheumatism 23:62-71 (1980). The lipoidal amine induced polyarthritis results from injection of N,N-dioctadecyl-N^1,N-bis(2-hydroxyethyl) propanediamine (7.5 mg/kg Lewis rat (220-225 g)), which is suspended in oil, intradermally at the base of the tail.

corticosterone = test: Serum/plasma corticosterone levels in mice; type: in vivo, mouse (Balb/C); details: FIG. 10 Panel A; 1 and 3 hr. following injection
Description: Dopamine agonists are known to elevate circulating glucocorticoid levels, via activation of the hypothalamo-pituitary-adrenal axis. […] Since glucocorticoids are potential endogenous anti-inflammatory substances, this action is one potential mechanism for the anti-inflammatory effect of the ergolines. However, in subsequent inflammation studies, the anti-inflammatory effects of D-1-isopropyl-6-n-propyl-8β-methylthiomethyl ergoline were retained in mice lacking an adrenal gland and therefore devoid of the increase in circulating corticosterone. (FIG. 10B)
(§1) Both Balb/C mice (male, approximately 20 g, Charles Rivers) and Lewis rats (male, approximately 200 g, Charles River or Harlan Sprague Dawley) were used in neuroendocrine studies. Animals were maintained on a 12:12 hour light:dark cycle and were allowed ad lib access for food (Purina lab chow) and water. Experimental groups consisted of 6 to 8 animals.
After dosing with test compounds, animals were sacrificed by decapitation at 1, 3, 8 or 24 hour intervals. Trunk blood was collected, allowed to clot and serum obtained after centrifugation (3000 rpm for 15 min.). Serum was aliquoted and stored at -70° C. for subsequent radioimmunoassays. Serum prolactin was determined by radioimmunoassay. Serum corticosterone levels were determined with a kit designed for such determinations and obtained from ICN.

[2] = tested on: 5-HT induced paw swelling; test: Serotonin (5-HT) induced acute paw inflammation; type: in vivo, rat (Lewis)
Protocol: (§2) In one such model, the acute paw inflammation model, rats were treated with test compounds one hour prior to plantar injection of a 50 μl volume of a phlogistic. Animals were sacrificed and paw weights were determined at a prescribed time interval following the plantar injections. When 1% carrageenan was used as the phlogistic, the time interval between injection and sacrifice was 3 hours. When serotonin (5-hydroxytryptamine (5-HT)) was used, as the phlogistic agent the time interval was one hour. When substance P was used, the time interval was 30 minutes. The acute paw inflammation model is described in more detail in Example 3.
(§3) Male Lewis rats (Charles River or Harlan Sprague Dawley) weighing 180 to 250 g were used in all acute inflammatory studies. Animals were maintained on a 12:12 hour light:dark cycle and were allowed ad lib access for food (Purina lab chow) and water. Experimental groups consisted of 5 or 6 rats.
Acute paw swelling was induced by the intraplantar injection of phlogistic agents into the left hind paw, with the uninjected right hind paw serving as the comparative control. One hour after dosing with test compound, 50 μl of serotonin (Sigma; 0.005 to 0.2 mg/ml in normal saline) or substance P (Sigma; 0.01 or 0.05 mg/ml in 10% thiorphan in normal saline) or carrageenan (Marine Colloidal or Sigma Type IV; 1% in normal saline) were injected under the skin of the left hind paw, while the animal was restrained in a plastic cone. Negative controls were given 50 μl intradermal injections of normal saline (serotonin or carrageenan assays) or 10% thiorphan (substance P assays) into the left hind paw. One hour following injection of serotonin, or 30 minutes following injection of substance P, or 180 minutes following injection of carrageenan, the animals were sacrificed by CO2 asphyxiation. The right and left hind paws were cut just proximal to the tibiotarsal joint and weighed. The difference in weight between an individual animal's left and right paws were used as an indicator of tissue swelling.
As indicated above, test compounds are administered as a one hour pretreatment. In one series of experiments, 24 hour and 48 hour drug pretreatment periods were used. Test compounds were dosed intraperitoneally as a suspension in 1% carboxymethylcellulose.

[3] = Toxicity study / survival in mice; type: in vivo, mouse; details: FIG. 4; survival curve
Protocol: FIG. 4 Effect of 2 or 4 days treatment with compound 1 on a murine delayed type hypersensitivity (DTH) response (panel A) and toxicity study with compound 1 in mice (panel B). NEG=negative control for DTH; POS=positive control for DTH; CMC=carboxymethylcellulose (vehicle).
The activity of ergoline compounds was also evaluated in a murine delayed-type hypersensitivity (DTH) assay. The DTH assay was performed in substantial accordance with the method set forth in Example 1. Briefly, mice were sensitized by topical administration of picryl chloride on day 1 of the assay. On day 4 paw size was determined and recorded and the paw was then challenged with picryl chloride. The challenged paw was remeasured on day 5 to quantitate the DTH response via the increase in paw size. Results of the effects of compound D-1-isopropyl-6-n-propyl-8β-methylthiomethyl ergoline in the murine DTH model are presented in FIG. 4. FIG. 4, Panel A illustrates the efficacy of compound D-1-isopropyl-6-n-propyl-8β-methylthiomethyl ergoline in reducing paw swelling. […] FIG. 4, Panel B is a survival curve of mice treated with varying dosages of D-1-isopropyl-6-n-propyl-8β-methylthiomethyl ergoline.

serum prolactin = test: Serum prolactin levels in rats; type: in vivo, rat (Lewis); details: FIG. 11, 0.3, 3 and 30 mg/kg, 1 hour post-treatment
Protocol: A further mechanistic study wherein rat serum prolactin levels were quantitated 1 hour post-treatment with varying doses of D-1-isopropyl-6-n-propyl-8β-methylthiomethyl ergoline is summarized in FIG. 11. […] A time course/dose response study of D-1-isopropyl-6-n-propyl-8β-methylthio-methyl ergoline effects on murine serum prolactin levels is presented in FIG. 12. […] There is however a disparity between the suppression of prolactin and anti-inflammatory activities of the ergolines with regard to the dose response profiles. Serum prolactin levels are much more sensitive to D-1-isopropyl-6-n-propyl-8β-methylthiomethyl ergoline (maximal suppression ~≤0.1 mg/kg) than are the anti-inflammatory effects 3-10 mg/kg, See FIG. 5).
as §1
After dosing with test compounds, animals were sacrificed by decapitation at 1, 3, 8 or 24 hour intervals. […] Serum prolactin was determined by radioimmunoassay. Serum corticosterone levels were determined with a kit designed for such determinations and obtained from ICN.

[4] = tested on: substance P induced paw swelling; test: Substance P induced acute paw inflammation; type: in vivo, rat (Lewis); details: pre-treated with 3 mg/kg
Protocol: as §2, §3
Acute paw swelling was induced by the intraplantar injection of phlogistic agents into the left hind paw, with the uninjected right hind paw serving as the comparative control. […]

For `CCCN1C[C@H](CSC)C[C@@H]2c3cccc4c3c(cn4C(C)C)C[C@H]21` [Compound 1, D-1-isopropyl-6-n-propyl-8β-methylthiomethyl ergoline], which “effect on increase in hind paw volume and weight” value ([1]; FIG. 1) is on record?
The value was “Inhibitory effect”.

And the minimal effective dose ([1]; read-out: dosage giving statistically significant decrease in paw volume, FIG. 1 Panel A)?
Its minimal effective dose is ≥ 0.7 mg/kg.

And the minimal effective dose ([1]; read-out: dosage giving statistically significant decrease in paw weight, FIG. 1 Panel B)?
Its minimal effective dose is ≥ 0.7 mg/kg.

What about the “effect on plasma corticosterone” value (corticosterone) of the same compound?
Its value is “increase plasma cortiosterone”.

And the “reduction in paw swelling” value ([2]; 3 mg/kg dosed 24 hours prior to phlogistic challenge)?
Its value is “significant reduction in paw swelling”.

What about the “reduction in paw swelling” value ([2]; 3 mg/kg dosed 48 hours prior to phlogistic challenge) of the same compound?
Its value is “significant reduction in paw swelling”.

What about the “effect on 5-HT induced paw swelling” value ([2]; FIG. 2) of the same compound?
Its value is “Inhibitory effect”.

What about the “duration of anti-inflammatory effect” value ([2]; FIG. 3) of the same compound?
Its value is “longlasting”.

What about the “inhibition of serotonin induced paw swelling” value ([2]; FIG. 3, serotonin 0.2 mg/kg, 1, 24 and 48 hour following a single injection) of the same compound?
The value was “Inhibition”.

And the minimal effective dose ([2]; Rattus norvegicus, ip, read-out: lowest stated dosage with a significant reduction in paw swelling)?
Its minimal effective dose is 0.1 mg/kg.

And the “efficacious DTH dosages relative to toxic level” value [3]?
Its value is “well within the toxic level of the compound”.

What about the serum prolactin levels (serum prolactin; listed as D-1-isopropyl-6-n-propyl-8β-methylthiomethyl ergoline) of the same compound?
Its serum prolactin levels is “dramatically reduced serum prolactin levels”.

What about the serum prolactin levels (serum prolactin; listed as compound 1) of the same compound?
The serum prolactin levels was “Suppression of serum prolactin levels”.

And the “increase in paw weight after substance P” value ([4]; Substance P 0.01 mg/ml, untreated 174 ±18 mg)?
The value was 38 ± 11 mg.

What about the “reduction of substance P induced increase in paw weight” value ([4]; p<0.05) of the same compound?
Its value is 49%.
